In patent US20250135071A1, “USE OF POLYPEPTIDE IN PROMOTION OF CARTILAGE REGENERATION OR REPAIR” (HANGZHOU HUIBO SCIENCE AND TECHNOLOGY CO., LTD, priority 2021, published 2025):

Assays:
[1] = test system: rabbit temporomandibular joint condylar osteochondral defect (3 mm*3 mm); assay: Macroscopic (ICRS) evaluation of repair of rabbit condylar osteochondral defect; type: in vivo, New Zealand white rabbits; settings: overall conclusion, 1 to 4 weeks
Description: 54 adult male New Zealand white rabbits (Zhejiang Chinese Medical University, IACUC-20180625-04) were randomized into 3 groups, with 18 rabbits in each group. The 54 rabbits were operated at right condyle, while the left condyle remained intact.
They were divided into 3 groups, of which group 1 was a control group without any treatment in the defect region; group 2 was a Gel-MA group implanted with Gel-MA hydrogel in the defect region; and group 3 was a Hst1/Gel-MA group implanted with HST1 functionalized Gel-MA in the defect region (provided in Example 1). […]
At 1, 2 and 4 weeks after operation, 6 animals in each group were randomly selected for euthanasia. The right temporomandibular joint and surrounding tissues thereof were taken out, and the gross specimens were evaluated by macroscopic scoring, and statistically analyzed.
The macroscopic scoring evaluation of the gross specimens adopted a macroscopic scoring system of the International Cartilage Repair Society (ICRS), and the gross appearance of the defect site was photographed and subjected to blind evaluation by 3 independent graders. The scoring system evaluated the cartilage repair in the defect region from four aspects: the degree of repair, the integration of a boundary area, a macroscopic appearance and the overall repair evaluation. […]

[2] = test system: rabbit temporomandibular joint condylar osteochondral defect (3 mm*3 mm); assay: Histological evaluation (H&E, histomorphometry, MODS score) of repaired osteochondral defect; type: in vivo, New Zealand white rabbits; settings: group 3
Protocol: In this example, 3 groups of rabbits provided in Example 2 were used, and at 1, 2 and 4 weeks after operation, 6 animals in each group were randomly selected for euthanasia. The right temporomandibular joint and surrounding tissues thereof were taken out, and the gross specimens were analyzed for tissue morphology and statistically analyzed.
(§1) Histological examination steps were as follows: in an environment of 4° C., the specimens used for histological analysis were fixed in 10% neutral formalin (Sig-ma-Aldrich, USA) for 24 hours, and decalcified with a 10% ethylenediaminetetraacetic acid (EDTA) buffer solution (Sigma-Aldrich, USA) for 28 days. The sample was embedded in paraffin wax (Sigma-Aldrich, USA), cut into 4 μm thick sagittal sections, and subjected to staining with hemotoxylin and cosin, Masson trichrome and Alcian Blue (Sigma Aldrich, USA). The sections were detected immunohistochemically for the contents of the type II collagen and Aggrecan. All the sections were observed and photographed by utilizing an optical microscope (CX51; Olympus) and a digital charge coupled device camera (TrueChrome Metrics; Tucsen Photonics). These sections were scored blindly by 3 experienced pathologists with an improved O'Driscoll scoring system (MODS).
The steps of histological morphology analysis were as follows: in all the sample sections, the original defect region was a 3*3 mm square. The top of the square was flush with the cartilage surfaces on both sides. The percentages of areas of the new subchondral bone, the cartilage, the collagen fiber and the glycosaminoglycan (GAG) in the total area of the defect region was detected with image analysis software (image pro plus 6.0). Their respective contents were expressed as integrated optical density (IOD) of the type II collagen and Aggrecan measured by Image pro plus 6.0.
At 4 weeks after operation, the tissues were retrieved for histological treatment and sectioning. According to the implants in the defect region, they were divided into a group 1 as the control group (A in FIG. 3, A1-A2), a group 2 as the Gel-MA group (B in FIG. 3, B1-B2) and a group 3 as the Hst1/Gel-MA group (C in FIG. 3, C1-C2). The dotted square area in FIG. 3 was the original defect region (3 mm*3 mm). A-C scale=500 μm. […]
The quantitative analysis of areas of new cartilage and subchondral bones and the MODS score results of repairing osteochondral defects at 1, 2 and 4 weeks after operation were shown in FIG. 4. In FIG. 4, A was the quantitative analysis of the area of the new cartilage, B was the quantitative analysis of the area of the subchondral bone, and C, D and E were the MODS score results of repairing osteochondral defects at 1, 2 and 4 weeks after operation, respectively. […]

[3] = test system: collagen fibers; assay: Masson trichrome staining, collagen fiber area in defect region; type: in vivo, New Zealand white rabbits; settings: 2 and 4 weeks; group 3 versus groups 2 and 1; P<0.05
Protocol: as §1, with “All the sections were observed and photographed by utilizing an optical microscope (CX51; Olympus) and a digital charge coupled device camera (TrueChrome Metrics; Tucsen Photonics).” left out
(§2) The steps of histological morphology analysis were as follows: in all the sample sections, the original defect region was a 3*3 mm square. […] The percentages of areas of the new subchondral bone, the cartilage, the collagen fiber and the glycosaminoglycan (GAG) in the total area of the defect region was detected with image analysis software (image pro plus 6.0). Their respective contents were expressed as integrated optical density (IOD) of the type II collagen and Aggrecan measured by Image pro plus 6.0. […]

[4] = test system: glycosaminoglycan (GAG); assay: Alcian Blue staining, glycosaminoglycan (GAG) area in defect region; type: in vivo, New Zealand white rabbits; settings: 2 and 4 weeks; group 3 versus groups 2 and 1; P<0.05
Protocol: as §1, with “All the sections were observed and photographed by utilizing an optical microscope (CX51; Olympus) and a digital charge coupled device camera (TrueChrome Metrics; Tucsen Photonics).” left out
as §2

[5] = test system: type II collagen; assay: Immunohistochemistry of type II collagen in repaired tissue; type: in vivo, New Zealand white rabbits
Protocol: as §1, with “All the sections were observed and photographed by utilizing an optical microscope (CX51; Olympus) and a digital charge coupled device camera (TrueChrome Metrics; Tucsen Photonics).” left out
as §2

[6] = test system: Aggrecan; assay: Immunohistochemistry of Aggrecan in repaired tissue; type: in vivo, New Zealand white rabbits
Protocol: as §1, with “All the sections were observed and photographed by utilizing an optical microscope (CX51; Olympus) and a digital charge coupled device camera (TrueChrome Metrics; Tucsen Photonics).” left out
as §2

[7] = test system: defect region of a critical size in rabbit condyle; assay: Effect of Hst1 dose in Gel-MA on cartilage repair (H&E histology); type: in vivo; settings: 2 weeks
Description: In order to determine the optimal concentration of Hst1 for promoting osteochondral repair, Gel-M and 3 different doses of Hst1 at (A, A1) 50, (B, B1) 500, and (C, C1) 1,000 (μg)/sample were implanted in the defect region of a critical size in rabbit condyle, and the tissues were taken out at 2 weeks after operation, subjected to histological treatment and sectioned to explore the cartilage repair effects of the 3 different concentrations of Hst1.
The 3 different concentrations of Hst1 were set as follows: group A: 50 μg of Hst1+21.1 μl of a Gel-MA prepolymer solution; group B: 500 μg of Hst1+21.1 μl of a Gel-MA prepolymer solution; and group C: 1,000 μg of Hst1+21.1 μl of a Gel-MA prepolymer solution (the model volume of condylar defect was 21.1 μl/sample).
The optical photomicrographs of H&E stained tissue sections of rabbit condyle for comparison were shown in FIG. 8, wherein the dotted square area was the original defect region (3 mm*3 mm), the A-C scale was 500 μm; and the A1-C1 scale=50 μm. […] Therefore, 500 μg of Hst1/sample (500 μg of Hst1+21.1 μl of Gel-MA) was selected as the preferred concentration.

[8] = 4 weeks after operation, group 3
[9] = 4 weeks, group 3, quantitative analysis (IOD)

## Histatin-1 polypeptide (DSHEKRHHGYRRKFHEKHHSHREFPFYGDYGSNYLYDN; linear Hst1)
[1]
  effect on promoting the repair of cartilage injury (macroscopic): very significant effect on promoting the repair of cartilage injury
[2]; 1 week after operation
  histological observation of defect region: a new tissue was observed in the pores of the undegraded scaffold
[2]; 2 weeks after operation
  histological observation of defect region: new cartilage and bone tissues gradually grew, infiltrated and replaced the scaffold
[2]; 4 weeks after operation
  histological observation of defect region: the new cartilage proliferated and migrated to the center site of the defect
  new blood vessels at junction between subchondral bone and functionalized hydrogel: formation of new blood vessels could be detected
[3]
  area percentages of the collagen fibers in the new cartilage and the subchondral bone in the total area of the defect region: significantly higher than those in the groups 2 and 1
[4]
  area percentages of glycosaminoglycan (GAG) in the new cartilage and the subchondral bone in the total area of the defect region: significantly higher than those in the groups 2 and 1
[5]; [8]
  expression of the type II collagen in the new cartilage tissue: close to those in the normal cartilage tissue
[5]; [9]
  expression of the type II collagen compared with the groups 2 and 1: more significant
[6]; [8]
  expression of Aggrecan in the new cartilage tissue: close to those in the normal cartilage tissue
[6]; [9]
  expression of Aggrecan compared with the groups 2 and 1: more significant
[7]; group A: 50 μg of Hst1+21.1 μl Gel-MA prepolymer solution
  histological repair of defect region: no new tissue was generated, and only a small amount of cell infiltration was detected
[7]; group B: 500 μg of Hst1+21.1 μl Gel-MA prepolymer solution
  histological repair of defect region: several new cartilage islands could be obviously observed
[7]; group C: 1,000 μg of Hst1+21.1 μl Gel-MA prepolymer solution
  histological repair of defect region: a large number of new subchondral bones were generated, but almost no new cartilage tissue was detected
